From publication PMC12227560, “Total synthesis of a sorrentanone ester library and evaluation of its antimicrobial potential” (Scientific Reports, 2025)
Values after ≈ are worked out from the molar mass of the structure shown.

What was measured:
E. coli NCTC9001 = assay: Antimicrobial broth micro-dilution assay (MIC); format: cell-based; details: Escherichia coli; E. coli NCTC9001; 24 h at 37 °C; highest tested concentration 250 µg/mL; read-out: Minimum inhibitory concentration (MIC)
Excerpt: (§1) 3. Bioactivity and Toxicity Assays
(§2) Antimicrobial assay: According to the standard broth micro-dilution assays, following the Standards of European Committee on Antimicrobial Susceptibility Testing (v 7.3.1: Method for the determination of broth dilution minimum inhibitory concentrations of antifungal agents for yeasts) for Candida spp., and according to the standard broth micro-dilution assays, recommended by the National Committee for Clinical Laboratory Standards (M07-A8) for bacteria MIC values of compounds were determinate. Compounds were dissolved in DMSO at a concentration of 50 mg/mL, and the highest tested concentration was 250 µg/mL. The inoculums were 1x10^5 colony forming units (CFU/mL), for Candida species, and bacteria species, 5x10^5 colony forming units (CFU/mL). The MIC value was recorded as the lowest concentration that inhibited the growth after 24 h at 37 °C. Additionally, 5 µL from each well of 96 well plates was transferred to Luria Agar (LA) plates for bacteria and Sabouraud agar (SAB) plates for Candida spp. and incubated for an additional 24 h at 37 °C, to determine MBC (Minimum bactericidal/fungicidal concentration) values. In Table 1. Are labeled compounds showing a difference in MBC and previously determined MIC values. […]

P. aeruginosa ATCC27853 = assay: Antimicrobial broth micro-dilution assay (MIC); format: cell-based; details: Pseudomonas aeruginosa; P. aeruginosa ATCC27853; 24 h at 37 °C; highest tested concentration 250 µg/mL; read-out: Minimum inhibitory concentration (MIC)
Excerpt: as §1, §2

S. aureus MRSA = assay: Antimicrobial broth micro-dilution assay (MIC); format: cell-based; details: Staphylococcus aureus; S. aureus MRSA; 24 h at 37 °C; highest tested concentration 250 µg/mL; read-out: Minimum inhibitory concentration (MIC)
Excerpt: as §1, §2

B. subtilis ATCC6633 = assay: Antimicrobial broth micro-dilution assay (MIC); format: cell-based; details: Bacillus subtilis; B. subtilis ATCC6633; 24 h at 37 °C; highest tested concentration 250 µg/mL; read-out: Minimum inhibitory concentration (MIC)
Excerpt: as §1, §2

S. aureus ATCC25923 = assay: Antimicrobial broth micro-dilution assay (MIC); format: cell-based; details: Staphylococcus aureus; S. aureus ATCC25923; 24 h at 37 °C; highest tested concentration 250 µg/mL; read-out: Minimum inhibitory concentration (MIC)
Excerpt: as §1, §2

C. albicans ATCC10231 = assay: Antimicrobial broth micro-dilution assay (MIC); format: cell-based; details: Candida albicans; C. albicans ATCC10231; 24 h at 37 °C; highest tested concentration 250 µg/mL; read-out: Minimum inhibitory concentration (MIC)
Excerpt: as §1, §2

[1] = tested on: two S. aureus strains and B. subtilis ATCC6633; assay: Antimicrobial assay, Gram-positive bacteria; format: cell-based; details: from MIC values
Excerpt: as §1, §2

[2] = tested on: C. albicans ATCC 10231 hyphae formation; assay: Filamentation test on Candida (solid spider medium); format: cell-based, Candida albicans; details: 0.5 times MIC; 120 h; C. albicans ATCC10231
Procedure: Filamentation test on Candida: Using solid composition, the effect of sorrentano ne […]
albicans cells from an overnight culture grown in Sabouraud dextrose broth medium at 37 °C with or without compounds were centrifuged for 10 minutes at maximum speed, and the pellet was washed several times with sterile PBS (phosphate -buffered saline). After it, the pellet was resuspended in 200 µL PBS, and 2 µL of cell suspension was poured over solid composition and incubated at 37 °C for 120 h. Morphological changes of C. albicans ATCC

[3] = tested on: ergosterol in C. albicans; assay: Ergosterol biosynthesis assay; format: cell-based, Candida albicans; details: 0.5 MIC; Candida cells; UV profile
Procedure: Ergosterol biosynthesis assay: Ergosterol levels were measured according to the published procedure with some minor modifications. 10 Briefly, a sing le C. albicans colony from an overnight Sabouraud dextrose agar plate was used to inoculate 50 ml of Sabouraud dextrose broth containing 0.5 MIC concentrated compounds. Incubation was performed for 18 h at 37 °C on the rotary shaker at 180 rpm. Cells were harvested by centrifugation at 3000 rpm for 5 min and washed once with sterile distilled water. The net wet weight of the cell pellet was determined. Three milliliters of 25% alcoholic potassium hydroxide solution (25 g of KOH and 35 ml of sterile distill ed water, brought to 100 ml with 100% ethanol), was added to each pellet and vortex mixed for 1 min and incubated in an 85 °C water bath for 1 h. Tubes were cooled to room temperature and extraction of sterols was done with the addition of a mixture of 1 ml of sterile distilled water and 3 ml of n-heptane followed by vigorous vortex mixing for 3 min. The heptane layer was used for spectrophotometrically measuring ergosterol concentrations by scanning absorbance between 240 nm and 300 nm using Ultrospec 3300pro 573 (Amer sham Biosciences, Amersham, UK).

[4] = tested on: C. albicans ATCC10231 biofilm formation; assay: Anti-biofilm activity assessment (crystal violet); format: cell-based, Candida albicans; details: for inhibition of biofilm formation (in words): data not shown
Procedure: Anti-biofilm activity assessment: The effect of compounds on biofilms formation was determined on C. albicans ATCC 10231 strain. Anti -biofilm assays were conducted using a previously reported methodology with small modifica tions.9 The assay was carried out in 96 - well round-bottom polystyrene microtiter plates. Cells wer e harvested from overnight grown cultures, washed twice with sterile phosphate -buffered saline (PBS; Sigma -Aldrich, Munich, Germany), and resuspended in RPMI 1640 medium (Sigma -Aldrich) containing 2% glucose (w/v) at a concentration of 1 × 10^5 CFU/mL. C. albicans suspension was incubated with 0.5 MIC, 1 MIC, and 2 MIC compounds concentration in 200.0 μL final volume per well for 48 h at 37 °C to allow biofilm formation. Biofilm growth was analyzed by crystal violet (CV) staining of adherent cells and the a bsorbance at 590.0 nm was read on a Tecan Infinite 200 Pro multiplate reader (Tecan Group Ltd., Männedorf, Switzerland). […]

| SMILES | MIC (E. coli NCTC9001) | MIC (P. aeruginosa ATCC27853) | MIC (S. aureus MRSA) | MIC (B. subtilis ATCC6633) | MIC (S. aureus ATCC25923) | MIC (C. albicans ATCC10231) | improvement of antibacterial activity compared to sorrentanone (7) [1] | filamentation (in words) [2] | reduction of total amount of ergosterol (in words) [3] | inhibition of biofilm formation (in words) [4] | inhibition of biofilm formation ([4]; sub-inhibitory concentration (0.5 times MIC), 48 h) |
| --- | --- | --- | --- | --- | --- | --- | --- | --- | --- | --- | --- |
| CC1=C(O)C(=O)C(C)=C(C(=O)OCc2ccccc2)C1=O [compound 41] | > 250 µg/mL | > 250 µg/mL | 15.6 µg/mL (≈ 54.5 µM) | 15.6 µg/mL (≈ 54.5 µM) | 31.2 µg/mL (≈ 109 µM) | 62.5 µg/mL (≈ 218 µM) | two- to four-fold improved activity | hardly observed | most potent in reducing the total amount of ergosterol | displayed inhibition of biofilm formation | 60–77% |
| CC1=C(O)C(=O)C(C)=C(C(=O)OCCCC(C)C)C1=O [compound 36] | > 250 µg/mL | > 250 µg/mL | 31.2 µg/mL (≈ 111 µM) | 31.2 µg/mL (≈ 111 µM) | 15.6 µg/mL (≈ 55.7 µM) | 62.5 µg/mL (≈ 223 µM) | two- to four-fold improved activity | hardly observed | most potent in reducing the total amount of ergosterol | displayed inhibition of biofilm formation | – |
